What is called IC50 is the concentration that gives 50% inhibition. What is called cell viability is the share of living cells, or the viability signal relative to a control. Low readings indicate a greater loss of cells, high ones better survival.

Structures are written as SMILES. Read-outs that look alike come from different tables or passages of the source.

This note sets out measurements from paper PMC6456411 (Angewandte Chemie (International ed. in English), 2019).

Series [1] deals with co-culture of HS-5 and Saos-2 cells, 2D cell sheets. Nature of the series: Cytotoxicity of chemotherapy drugs on co-cultured 2D cell sheets. In kind it is cell-based. Conditions: co-culture 2D cell sheets, 24 h; for cell toxicity: within the tested concentrations.
Series [2] concerns co-culture of HS-5 and Saos-2 cells, 3D cell spheroids. Nature of the series: Cytotoxicity of chemotherapy drugs on co-cultured 3D spheroids. In kind it is cell-based. Conditions: co-culture 3D cell spheroids, 24 h; for cell toxicity: within the tested concentrations.
The subject of another series is Saos-2 cells. Nature of the series: Cytotoxicity of chemotherapy drugs on 2D cell culture of Saos-2.
The test system of series [3] is Saos-2 cells in 3D culture. The series is described as follows: Cytotoxicity of chemotherapy drugs on 3D cell spheroids of Saos-2. In kind it is cell-based.
The subject of series [4] is co-culture of HS-5 and Saos-2 cells. Nature of the series: Spheroid formation and live-dead assay in co-culture of HS-5 and Saos-2 cells. In kind it is cell-based. Conditions: treated for 48 h; 1P:2 300 μM, ratio 1:1.
[5] abbreviates: Homo sapiens, SAOS-2, 48 h, read-out: IC50 against Saos-2 cells.

With `COc1cccc2c1C(=O)c1c(O)c3c(c(O)c1C2=O)C[C@@](O)(C(=O)CO)C[C@@H]3O[C@H]1C[C@H](N)[C@H](O)[C@H](C)O1` [Dox, doxorubicin], the cell killing entry in series [1] (5 μM) was “kills about half of cells”. In addition, the cell toxicity result is reported as “dosage dependent cell toxicity” in series [1] and “little toxicity” in series [2]. Besides, the cell death entry in series [2] (5 μM) is “hardly causes cell death”. The IC50 was 1.4 µM in the series on Saos-2 cells (setting [5]) and greater than 6 µM in series [3] (setting [5]). Further, the “increase of IC50 in 3D culture than 2D culture” value in series [3] (Saos-2 cells, 48 h) is “more than 3 times”.

Consider `N.N.[Cl][Pt][Cl]` [cisplatin], for which the cell killing entry in series [1] (50 nM) is recorded as “kills about half of cells”. Besides, the cell toxicity result is “dosage dependent cell toxicity” in series [1] and “little toxicity” in series [2]. For the same molecule, the cell death entry in series [2] (50 nM) is given as “hardly causes cell death”. In addition, the IC50 in series [3] (read-out: IC50 against Saos-2 cells, 3D culture, 48 h) was 33.3 µM; in series [3] (read-out: increase of IC50 in 3D culture, Saos-2 cells, 48 h, 3D versus 2D), 12 µM.

`CN[C@H](CC(C)C)C(=O)N[C@H]1C(=O)N[C@@H](CC(N)=O)C(=O)N[C@H]2C(=O)N[C@H]3C(=O)N[C@H](C(=O)N[C@H](C(=O)O)c4cc(O)cc(O)c4-c4cc3ccc4O)[C@H](O)c3ccc(c(Cl)c3)Oc3cc2cc(c3O[C@@H]2O[C@H](CO)[C@@H](O)[C@H](O)[C@H]2O[C@H]2C[C@](C)(N)[C@H](O)[C@H](C)O2)Oc2ccc(cc2Cl)[C@H]1O` [compound 2, vancomycin]: the “morphology of co-cultured HS-5 and Saos-2 cells” value in series [4] is “remain a 2D cell sheet”. In the series with Saos-2 cells (co-incubating with chemotherapy drugs), the “influence on cytotoxicity of chemotherapy drugs against Saos-2 cells” value was “hardly influence their cytotoxicity”.

As to `CC(=O)O[C@H]1C(=O)[C@@]2(C)[C@H]([C@H](OC(=O)c3ccccc3)[C@]3(O)C[C@H](OC(=O)[C@H](O)[C@@H](NC(=O)c4ccccc4)c4ccccc4)C(C)=C1C3(C)C)[C@]1(OC(C)=O)CO[C@@H]1C[C@@H]2O` [taxol], the cell viability in the series on Saos-2 cells (Saos-2 2D sheet, 40 nM, 48 h) came to 60.84%; in series [3] (Saos-2 3D spheroids, 40 nM, 48 h), 94.25%.
